Source: US9914730B2, “Azaquinazoline inhibitors of Atypical protein Kinase C” (Ignyta, Inc., priority 2012, dated 2018)

These molecules were tested against T1, full-length human PKCι (Homo sapiens, UniProt P41743) (assay: PKCι IC50 IMAP assay, full-length PKCι at 150 μM ATP). Settings: read-out: IC50 in IMAP assay against full length PKCi at 150 μM ATP.
T1 construct: Recombinant, full-length human PKCι expressed in Sf21 insect cells is also commercially available; purchased; host or cells: Sf21 insect cells
T1 sequence (P41743 1-596): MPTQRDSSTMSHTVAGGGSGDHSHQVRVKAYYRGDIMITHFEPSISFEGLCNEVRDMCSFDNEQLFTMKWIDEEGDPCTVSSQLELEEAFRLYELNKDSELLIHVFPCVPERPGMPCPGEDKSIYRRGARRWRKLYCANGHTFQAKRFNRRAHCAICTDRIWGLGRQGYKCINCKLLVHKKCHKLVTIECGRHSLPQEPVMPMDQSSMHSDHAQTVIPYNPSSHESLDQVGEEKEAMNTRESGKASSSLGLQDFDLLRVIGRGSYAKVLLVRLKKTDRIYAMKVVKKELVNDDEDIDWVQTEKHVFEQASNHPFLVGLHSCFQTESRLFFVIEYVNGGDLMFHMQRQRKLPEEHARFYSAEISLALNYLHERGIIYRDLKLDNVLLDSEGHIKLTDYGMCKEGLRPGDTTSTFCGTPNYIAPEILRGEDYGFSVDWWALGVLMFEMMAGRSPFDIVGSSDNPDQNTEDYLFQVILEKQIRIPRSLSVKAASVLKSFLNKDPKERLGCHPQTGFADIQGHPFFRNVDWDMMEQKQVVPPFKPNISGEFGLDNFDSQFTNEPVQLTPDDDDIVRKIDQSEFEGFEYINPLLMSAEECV
Assay type: biochemical
Outline: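 Recombinant full-length human PKCι (Sf21-expressed, typically 15 pM) phosphorylated 100 nM 5FAM-labelled PKCε pseudosubstrate-derived peptide with 150 μM ATP (5× KM^APP) in 18 mM tris-HCl pH7.5, 9 mM MgCl2, EGTA, DTT, 4% DMSO. After 60 min at room temperature, IMAP binding reagent was added for 2 h and fluorescence polarisation read.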

| IC50 | Compound |
| --- | --- |
| < 100 nM | FC(F)c1cc2c(-c3nc(N4CCNCC4)c4c(C5CC5)cncc4n3)ccnc2[nH]1 [Example 2106, 5-Cyclopropyl-2-(2-difluoromethyl-1H-pyrrolo[2,3-b]pyridin-4-yl)-4-piperazin-1-yl-pyrido[3,4-d]pyrimidine] |
| < 100 nM | Fc1cccc(F)c1Nc1cc(-c2nc(NCC3CCNCC3)c3c(C4CC4)cncc3n2)ccn1 [Example 2107, {5-Cyclopropyl-2-[2-(2,6-difluoro-phenylamino)-pyridin-4-yl]-pyrido[3,4-d]pyrimidin-4-yl}-piperidin-4-ylmethyl-amine] |
| < 100 nM | COCC(C)(C)c1cc2c(-c3nc(N4CCNCC4)c4c(C5CC5)cncc4n3)ccnc2[nH]1 [Example 2108, 5-Cyclopropyl-2-[2-(2-methoxy-1,1-dimethyl-ethyl)-1H-pyrrolo[2,3-b]pyridin-4-yl]-4-piperazin-1-yl-pyrido[3,4-d]pyrimidine] |
| < 100 nM | Cc1cc2c(-c3nc(N4CCNCC4)c4c(C5CCC5)cncc4n3)ccnc2[nH]1 [Example 2112, 5-Cyclobutyl-2-(2-methyl-1H-pyrrolo[2,3-b]pyridin-4-yl)-4-piperazin-1-yl-pyrido[3,4-d]pyrimidine] |
| < 100 nM | c1ccc(C2(c3cc4c(-c5nc(N6CCNCC6)c6c(C7CCC7)cncc6n5)ccnc4[nH]3)CC2)cc1 [Example 2113, 5-Cyclobutyl-2-[2-(1-phenyl-cyclopropyl)-1H-pyrrolo[2,3-b]pyridin-4-yl]-4-piperazin-1-yl-pyrido[3,4-d]pyrimidine] |
| < 100 nM | c1cc(-c2nc(N3CCNCC3)c3c(C4CC4)cncc3n2)cc(Nc2ccc3nonc3c2)n1 [Example 2116, Benzo[1,2,5]oxadiazol-5-yl-[4-(5-cyclopropyl-4-piperazin-1-yl-pyrido[3,4-d]pyrimidin-2-yl)-pyridin-2-yl]-amine] |
| < 100 nM | CC(C)(C)c1cc2c(-c3nc(N4CCNCC4)c4c(C5CC5)cnc(F)c4n3)ccnc2[nH]1 [Example 2119, 2-(2-tert-Butyl-1H-pyrrolo[2,3-b]pyridin-4-yl)-5-cyclopropyl-8-fluoro-4-piperazin-1-yl-pyrido[3,4-d]pyrimidine] |
| < 100 nM | c1cc(-c2nc(N3CCNCC3)c3c(C4CC4)cncc3n2)cc(Nc2ccc3c(c2)CCC3)n1 [Example 2124, [4-(5-Cyclopropyl-4-piperazin-1-yl-pyrido[3,4-d]pyrimidin-2-yl)-pyridin-2-yl]-indan-5-yl-amine] |
| < 100 nM | CC1(C)CN(c2nc(-c3ccnc(Nc4nc(F)c(C5CC5)cc4F)c3)nc3cncc(C4CC4)c23)CCN1 [Example 2125, (5-Cyclopropyl-3,6-difluoro-pyridin-2-yl)-{4-[5-cyclopropyl-4-(3,3-dimethyl-piperazin-1-yl)-pyrido[3,4-d]pyrimidin-2-yl]-pyridin-2-yl}-amine] |
| < 100 nM | O=C(Nc1cc(-c2nc(N3CCNCC3)c3c(C4CC4)cncc3n2)ccn1)C(F)(F)c1ccccc1 [Example 2126, N-[4-(5-Cyclopropyl-4-piperazin-1-yl-pyrido[3,4-d]pyrimidin-2-yl)-pyridin-2-yl]-2,2-difluoro-2-phenyl-acetamide] |
| < 100 nM | FC1(c2cc3c(-c4nc(N5CCNCC5)c5c(C6CC6)cncc5n4)ccnc3[nH]2)CC1 [Example 2127, 5-Cyclopropyl-2-[2-(1-fluoro-cyclopropyl)-1H-pyrrolo[2,3-b]pyridin-4-yl]-4-piperazin-1-yl-pyrido[3,4-d]pyrimidine] |
| 100 to 1000 nM | CN1CCC(Sc2nc(-c3ccnc(Nc4c(F)cccc4F)c3)nc3cncc(C4CC4)c23)CC1 [Example 2128, {4-[5-Cyclopropyl-4-(1-methyl-piperidin-4-ylsulfanyl)-pyrido[3,4-d]pyrimidin-2-yl]-pyridin-2-yl}-(2,6-difluoro-phenyl)-amine] |
| < 100 nM | Cn1cc(-c2ccc(Nc3cc(-c4nc(N5CCNCC5)c5c(C6CC6)cncc5n4)ccn3)c(F)c2)cn1 [Example 2130, [4-(5-Cyclopropyl-4-piperazin-1-yl-pyrido[3,4-d]pyrimidin-2-yl)-pyridin-2-yl]-[2-fluoro-4-(1-methyl-1H-pyrazol-4-yl)-phenyl]-amine] |
| < 100 nM | c1ccc(Nc2cc(-c3nc(N4CC5CNCC5C4)c4c(C5CC5)cncc4n3)ccn2)cc1 (stereo not shown) [Example 2131, {4-[5-Cyclopropyl-4-(hexahydro-pyrrolo[3,4-c]pyrrol-2-yl)-pyrido[3,4-d]pyrimidin-2-yl]-pyridin-2-yl}-phenyl-amine] |
| < 100 nM | Fc1cnc(Nc2cc(-c3nc(N4CC5CNCC5C4)c4c(C5CC5)cncc4n3)ccn2)c(F)c1 (stereo not shown) [Example 2132, {4-[5-Cyclopropyl-4-(hexahydro-pyrrolo[3,4-c]pyrrol-2-yl)-pyrido[3,4-d]pyrimidin-2-yl]-pyridin-2-yl}-(3,5-difluoro-pyridin-2-yl)-amine] |

Second part, the molecule before the results:

| Compound | IC50 |
| --- | --- |
| Fc1cccc(F)c1Nc1cc(-c2nc(NCC3CCN(C4CCC4)CC3)c3c(C4CC4)cncc3n2)ccn1 [Example 2103, (1-Cyclobutyl-piperidin-4-ylmethyl)-{5-cyclopropyl-2-[2-(2,6-difluoro-phenylamino)-pyridin-4-yl]-pyrido[3,4-d]pyrimidin-4-yl}-amine] | 100 to 1000 nM |
| c1cc(Nc2cc(-c3nc(N4CCNCC4)c4c(C5CC5)cncc4n3)ccn2)c2nonc2c1 [Example 2104, Benzo[1,2,5]oxadiazol-4-yl-[4-(5-cyclopropyl-4-piperazin-1-yl-pyrido[3,4-d]pyrimidin-2-yl)-pyridin-2-yl]-amine] | < 100 nM |
| FC(F)(F)c1cc2c(-c3nc(N4CCNCC4)c4c(C5CCCC5)cncc4n3)ccnc2[nH]1 [Example 2105, 5-Cyclopentyl-4-piperazin-1-yl-2-(2-trifluoromethyl-1H-pyrrolo[2,3-b]pyridin-4-yl)-pyrido[3,4-d]pyrimidine] | < 100 nM |
| COCC(C)(C)c1cc2c(-c3nc(N4CCNCC4)c4c(C5CCC5)cncc4n3)ccnc2[nH]1 [Example 2109, 5-Cyclobutyl-2-[2-(2-methoxy-1,1-dimethyl-ethyl)-1H-pyrrolo[2,3-b]pyridin-4-yl]-4-piperazin-1-yl-pyrido[3,4-d]pyrimidine] | < 100 nM |
| CN(c1nc(-c2ccnc(Nc3c(F)cccc3F)c2)nc2cncc(C3CC3)c12)C1CCN(C2CCC2)CC1 [Example 2110, (1-Cyclobutyl-piperidin-4-yl)-{5-cyclopropyl-2-[2-(2,6-difluoro-phenylamino)-pyridin-4-yl]-pyrido[3,4-d]pyrimidin-4-yl}-methyl-amine] | 100 to 1000 nM |
| c1cc(-c2nc(N3CCNCC3)c3c(C4CC4)cncc3n2)c2cc(C3CCOCC3)[nH]c2n1 [Example 2111, 5-Cyclopropyl-4-piperazin-1-yl-2-[2-(tetrahydro-pyran-4-yl)-1H-pyrrolo[2,3-b]pyridin-4-yl]-pyrido[3,4-d]pyrimidine] | < 100 nM |
| FC(F)c1cc2c(-c3nc(N4CCNCC4)c4c(C5CCC5)cncc4n3)ccnc2[nH]1 [Example 2114, 5-Cyclobutyl-2-(2-difluoromethyl-1H-pyrrolo[2,3-b]pyridin-4-yl)-4-piperazin-1-yl-pyrido[3,4-d]pyrimidine] | < 100 nM |
| CC(C)N1CCC(N(C)c2nc(-c3ccnc(Nc4c(F)cccc4F)c3)nc3cncc(C4CC4)c23)CC1 [Example 2115, {5-Cyclopropyl-2-[2-(2,6-difluoro-phenylamino)-pyridin-4-yl]-pyrido[3,4-d]pyrimidin-4-yl}-(1-isopropyl-piperidin-4-yl)-methyl-amine] | < 100 nM |
| FC(F)(F)c1cc2c(-c3nc(N4CCNCC4)c4c(Br)cncc4n3)ccnc2[nH]1 [Example 2117, 5-Bromo-4-piperazin-1-yl-2-(2-trifluoromethyl-1H-pyrrolo[2,3-b]pyridin-4-yl)-pyrido[3,4-d]pyrimidine] | < 100 nM |
| CC(C)(C)c1cc2c(-c3nc(N4CCNCC4)c4c(C5CC5)cnc(Cl)c4n3)ccnc2[nH]1 [Example 2118, 2-(2-tert-Butyl-1H-pyrrolo[2,3-b]pyridin-4-yl)-8-chloro-5-cyclopropyl-4-piperazin-1-yl-pyrido[3,4-d]pyrimidine] | < 100 nM |
| CC(C)(C)c1cc2c(-c3nc(N4CCNCC4)c4c(Br)cncc4n3)ccnc2[nH]1 [Example 2120, 5-Bromo-2-(2-tert-butyl-1H-pyrrolo[2,3-b]pyridin-4-yl)-4-piperazin-1-yl-pyrido[3,4-d]pyrimidine] | < 100 nM |
| CN(c1nc(-c2ccnc(Nc3c(F)cccc3F)c2)nc2cncc(C3CC3)c12)C1CCN(CC(F)F)CC1 [Example 2123, {5-Cyclopropyl-2-[2-(2,6-difluoro-phenylamino)-pyridin-4-yl]-pyrido[3,4-d]pyrimidin-4-yl}-[1-(2,2-difluoro-ethyl)-piperidin-4-yl]-methyl-amine] | 100 to 1000 nM |
| CN1CCC(N(C)c2nc(-c3ccnc(Nc4ncc(F)cc4F)c3)nc3cncc(C4CC4)c23)CC1 [Example 2129, {5-Cyclopropyl-2-[2-(3,5-difluoro-pyridin-2-ylamino)-pyridin-4-yl]-pyrido[3,4-d]pyrimidin-4-yl}-methyl-(1-methyl-piperidin-4-yl)-amine] | < 100 nM |
